Data published in US20240415858A1, “PROMOTING MYELINATION BY N-ACETYLGLUCOSAMINE AND MODULATION OF N-GLYCAN BRANCHING” (THE REGENTS OF THE UNIVERSITY OF CALIFORNIA, priority 2021, published 2024).
“Also recorded” adds a separate entry of the source.

Columns and labels:
[1] = tested on: newborn PL/J mice; assay: Primary myelination in newborn pups, GIcNAc given to pregnant/lactating mothers in drinking water; type: in vivo, mouse
Description: GIcNAc treatment of mouse pups—GIcNAc (1 mg/mL) in drinking water was provided to pregnant PLJ mothers or mothers who recently delivered pups and were nursing their young. After the treatment period, pups were anesthetized with isoflurane and cardiac perfused with PBS. Pup and fetal brains were removed and homogenized by trituration using glass pipettes in PBS with 5% Fetal Bovine Serum (FBS).
Cells were then stained with antibodies and analyzed by flow cytometry using antibodies described herein. For immunofluorescence analysis of pup brains, pups were quickly decapitated, brains harvested and fixed in 4% paraformaldehyde overnight.
(§1) For neural stem cell (NSC) immunofluorescence, whole neurospheres were seeded onto laminin-coated coverslips (Neuvitro) in proliferation medium. After 24 hours, proliferation media was removed and replaced with differentiation medium (same components as proliferation medium but excluding EGF, bFGF, and heparin) to induce differentiation. For analysis of mouse brains, brains were incubated in 30% sucrose for at least 72 hours, embedded in OCT (Tissue-tek), frozen for at least 48 hours at −80° C., and then cut at 40 microns on a cryostat. Multiple sections from −1 bregma to −2.5 bregma were then stained with antibodies for MBP (1:100; MAB386, Millipore), Olig2 (1:200; AB9610, Millipore), CC1 (1:100; OP90, Millipore), degraded MBP (1:200, AB5864, Millipore) and Amyloid Precursor Protein (APP, 1:200; clone 22C11). After overnight incubation with primary antibody, tissues were washed and incubated with secondary antibodies: goat anti-rat Alexa-fluor 488 (1:200, Thermofisher), goat anti-rabbit TxRd (1:200, Thermofisher). APP is a marker for neuro-axonal damage while co-staining for CC1 and Olig2 are markers of mature oligodendrocytes. In order to examine the amount of myelin, slices were incubated in Fluoromyelin (1:300; F34651, Thermofisher) for 45 minutes. Images were acquired on a Keyence fluorescence microscope. Mean fluorescence intensity of the medial corpus callosum was measured using ImageJ.
To assess whether oral GIcNAc promotes oligodendrogenesis in vivo in the absence of inflammation, primary myelination was examined in mice during the early perinatal period. GIcNAc or vehicle was provided to pregnant/lactating female mice from E12.5, postnatal day 3 (P3) or P5 through to P8. Indeed, oral GIcNAc increased N-glycan branching in PDGFRα^+ cells as well as the number of pre-oligodendrocytes (PDGFRα^+O4^+), immature oligodendrocytes (PDGFRα-O4^+) and mature oligodendrocytes (MBP*), with little effect on the number of OPC's ([…]) (FIG. 2B and FIG. 6A).

[2] = tested on: MS patients; assay: Phase 1 trial: serum neurofilament light chain (Nfl), single molecule array immunoassay; type: in vivo, human; conditions: subjects with elevated baseline Nfl from all three dose groups, week 3 and 4 of treatment, p=0.0045, n=18
Description: Comparison of the change in serum Nfl concentration in subjects with elevated baseline levels (combined from the 3 g, 6 g, and 12 g cohorts) showing change from pre-GIcNAc to during weeks 3-4 of GIcNAc treatment. The four data points pre-GIcNAc (black dots) and the two data points from week 3 and 4 during GIcNAc treatment are averaged, normalized to pre-GIcNAc levels and shown as black and red dots connected by black lines for each subject, respectively. Nfl was measured by an ultra sensitive single molecule array immunoassay. P-value by 1-tailed Wilcoxon matched-pairs signed rank test.
Neurons exclusively express Nfl and release it when damaged, with high serum Nfl levels (>˜40 pg/ml) serving as a robust biomarker for ongoing neuro-axonal damage in MS. This analysis was done blinded by Jens Kuhle (University of Basel), who has published extensively on Nfl in MS.

[3] = tested on: mouse neural stem cells (NSC) derived from the medial ganglionic eminence of E12.5 mouse embryos; assay: Oligodendrogenesis from mouse neural stem cells in vitro (flow cytometry, immunofluorescence); type: cell-based
Excerpt: Mice were bred and utilized as approved by the University of California, Irvine Institutional Animal Care and Use Committee. Dorsal forebrain cortical tissue was dissected from the medial ganglionic eminence (MGE) at embryonic day 12.5 (E12) of CD1 mice (Charles River) or Mgat5−/− C57BL/6 mice and their wildtype littermates and placed in dissection buffer comprising PBS, 0.6% glucose, and 50 U/mL Pen/Strep. Tissue from multiple embryos within the same litter were pooled, and a subsequent culture from a single litter was considered a biological repeat. The tissue was dissociated using 0.05% Trypsin-EDTA at 37° C. for 10 min, followed by treatment with soybean trypsin inhibitor (Life Technologies). Dissociated cells were re-suspended in proliferation medium comprising DMEM, 1× B27, 1× N2, 1 mM sodium pyruvate, 2 mM L-glutamine, 1 mM N-acetylcysteine, 20 ng/mL EGF (PeproTech), 10 ng/mL bFGF (PeproTech), and 2 μg/mL heparin and seeded at 150,000 cells/mL (non-tissue culture treated plastic plates) and grown as non-adherent spheres. Cell cultures were passaged approximately every 3 days using enzyme-free NeuroCult Chemical Dissociation Kit (Mouse) (StemCell Technologies). Cultures were passaged at least once prior to experimental use. For experiments, passaged cells were cultured in proliferation media (bFGF and EGF) or differentiation media (bFGF (10 ng/ml) and PDGF-AA (10 ng/ml); Life technologies) for 48 hours with or without the presence of GIcNAc (Ultimate Glucosamine, Wellesley Therapeutics) or kifunensine (GlycoSyn). Neurospheres were dispersed using the enzyme-free NeuroCult kit before being analyzed by flow cytometry using one or more of the following antibodies: anti-CD140a/PDGF-RA PE conjugate (1:200, A15785, Molecular Probes), anti-04 Alexa Fluor 488 conjugated (1:200, FAB1326G, RnD systems), Anti-GaIC Alexa Fluor 647 1:200, MAB342-AF647, Millipore), Anti-Olig2 (1:200, AB9610, Millipore) with anti-rabbit Alexa Fluor 488 (1:200, thermofisher).
as §1
Oligodendrogenesis were examined in vitro using mouse neural stem cells (NSC) derived from the medial ganglionic eminence of E12.5 mouse embryos, where OPC's first appear. […] Consistent with increased PDGFRα surface expression, GIcNAc also promoted pre-oligodendrocyte differentiation as evidenced by augmented expression of Oligodendrocyte Transcription Factor (OLIG2) and increased numbers of 04 and GaIC positive cells (FIGS. 1A, 1B and 1C, FIGS. 5B and 5C). […]

[4] = mouse, in vivo, po
[5] = mothers treated from E12.5, P3 or P5 to P8, pup brains
[6] = NSCs, 48 hrs, growth media lacking exogenous differentiation cytokines

## CC(=O)N[C@H]1C(O)O[C@H](CO)[C@@H](O)[C@@H]1O (some centres unmarked) [GIcNAc, N-acetylglucosamine]
[1]; P3-8
  primary myelination: staining for myelin (fluoromyelin): increased
  primary myelination: staining for myelin basic protein (MBP): increased
[1]; [5]
  N-glycan branching in PDGFRα+ cells: increased
  number of OPC's (PDGFRα−O4+): little effect
  number of immature oligodendrocytes (PDGFRα-O4+): increased
  number of mature oligodendrocytes (MBP): increased
  number of pre-oligodendrocytes (PDGFRα+O4+): increased
[2]
  serum Nfl levels: significantly reduced; also recorded: reduces
[3]; GIcNAc combined with PDGF-AA (differentiation media)
  NSC differentiation to O4+ pre-oligodendrocytes: enhanced
[3]; GIcNAc in growth media vs differentiation media with exogenous PDGF-AA
  initiating oligodendrogenesis, compared with PDGF-AA differentiation media: more potent than differentiation media containing exogenous PDGF-AA
[3]; NSCs, 48 hrs, growth media
  pre-oligodendrocyte differentiation (OLIG2 expression, numbers of O4 and GalC positive cells): promoted
[3]; [6]
  N-glycan branching (L-PHA flow cytometry): significantly increased
  PDGFRα surface expression: significantly increased
[3]; NSCs, growth media
  development of pre-oligodendrocytes (PDGFRα O4+), double staining: promoted development
  number of OPC's (PDGFRα+O4−): no change
[4]
  crossing of the blood brain barrier: able to cross the blood brain barrier
  secretion in breast milk: secreted at sufficient levels in breast milk to raise UDP-GIcNAc in the brains of suckling pups
